This is an account of results in patent publication US11691898B2, “Water treatment” (ITALMATCH CHEMICALS GB LIMITED, priority 2016, dated 2023).

One assay deals with Desulfovibrio vulgaris. As to the kind of experiment: Log10 reduction in viable count of anaerobic bacteria in a high-TDS aqueous suspension. The class given is cell-based. To be noted: for effectiveness against anaerobes (in words): alone; for Log10 Reduction Anaerobes*: pH 8.0, TDS 30,000 mg l^-1, versus control, 5 = complete kill, ppm active as per example. On the procedure: (§1) Aqueous systems inoculated with anaerobe and facultative anaerobe culture and having a total dissolved solids (TDS) concentration of 30,000 mg l^−1 were prepared and treated with treatment agents comprising: (a) tri n-butyl n-tetradecyl phosphonium chloride (TTPC) and (b) NaClO2.
(§2) A suspension of Desulfovibrio vulgaris plus Enterobacter aerogenes bacteria containing from 1×10^5 to 1×10^6 cells/mL was prepared in sterile pH 8 phosphate buffer containing sodium chloride to give the desired total dissolved solids (TDS) concentration. Aliquots of this suspension were dosed with the indicated concentrations of the compounds (a) and (b) with the concentrations being measured as ppm active. The mixtures were allowed to stand at room temperature. At the designated contact times, each mixture was sampled to determine the total number of viable cells of both Desulfovibrio vulgaris and Enterobacter aerogenes by serial 10-fold dilution into API RP 38 media vials and anaerobic acid producing media vials, respectively. The vials were incubated at 37° C. for 72 hours. Results were recorded as log10 reduction in the viable count versus the control.
(§3) The efficacy of the treatment agents was evaluated by measuring the Log10 Reduction of the anaerobic bacterium Desulfovibrio vulgaris and the facultative anaerobic bacterium Enterobacter aerogenes after contact times of 1 hour, 4 hours and 24 hours as detailed in Table 1. For TTPC the stated ppm value relates to the amount of TTPC added (active). For NaClO2 the stated ppm relates to the amount of NaClO2 added (active).

The next assay relates to Enterobacter aerogenes. As to the kind of experiment: Log10 reduction in viable count of facultative anaerobic bacteria in a high-TDS aqueous suspension. The assay is classed as cell-based. To be noted: pH 8.0, TDS 30,000 mg l^-1, versus control, 6 = complete kill, ppm active as per example. Here is the method: as §1, §2, §3

As for `[Na+].[O-][Cl+][O-]` [NaClO2], the results for the “effectiveness against anaerobes (in words)” value with Desulfovibrio vulgaris (longer contact times) and with Desulfovibrio vulgaris (short contact times) were “limited effectiveness” and “ineffective”, respectively.

As for `CCCCCCCCCCCCCC[P+](CCCC)(CCCC)CCCC.[Cl-]` [2(comparative), tri n-butyl n-tetradecyl phosphonium chloride], in the assay on Desulfovibrio vulgaris (contact time 1 hour), the “Log10 Reduction Anaerobes*” value is listed as 5. Also, the “Log10 Reduction Facultative Anaerobes**” value in the assay on Enterobacter aerogenes (contact time 1 hour) came out at 3.

Turning to `CCCCCCCCCCCCCC[P+](CCCC)(CCCC)CCCC.[Cl-]` [9(comparative), tri n-butyl n-tetradecyl phosphonium chloride], the “Log10 Reduction Anaerobes*” value with Desulfovibrio vulgaris (contact time 4 hours) was determined as 5. Also, the “Log10 Reduction Facultative Anaerobes**” value in the assay on Enterobacter aerogenes (contact time 4 hours) is 3.

In the case of `[Na+].[O-][Cl+][O-]` [4(comparative), NaClO2], the “Log10 Reduction Anaerobes*” value in the assay with Desulfovibrio vulgaris (contact time 1 hour) came out at 0. Moreover, in the assay with Enterobacter aerogenes (contact time 1 hour), the “Log10 Reduction Facultative Anaerobes**” value was found to be 0.

For the compound `CCCCCCCCCCCCCC[P+](CCCC)(CCCC)CCCC.[Cl-]` [17(comparative), tri n-butyl n-tetradecyl phosphonium chloride], the “Log10 Reduction Anaerobes*” value with Desulfovibrio vulgaris (contact time 24 hours) is given as 5. The “Log10 Reduction Facultative Anaerobes**” value with Enterobacter aerogenes (contact time 24 hours) was determined as 5.

`[Na+].[O-][Cl+][O-]` [12(comparative), NaClO2]: in the assay with Desulfovibrio vulgaris (contact time 4 hours), the “Log10 Reduction Anaerobes*” value worked out at 1. Further, the “Log10 Reduction Facultative Anaerobes**” value in the assay on Enterobacter aerogenes (contact time 4 hours) is listed as 0.

Take `CCCCCCCCCCCCCC[P+](CCCC)(CCCC)CCCC.[Cl-]` [1(comparative), tri n-butyl n-tetradecyl phosphonium chloride]: in the assay on Desulfovibrio vulgaris (contact time 1 hour), the “Log10 Reduction Anaerobes*” value is 2. Also, in the assay with Enterobacter aerogenes (contact time 1 hour), the “Log10 Reduction Facultative Anaerobes**” value amounted to 0.

Regarding `[Na+].[O-][Cl+][O-]` [11(comparative), NaClO2], in the assay with Desulfovibrio vulgaris (contact time 4 hours), the “Log10 Reduction Anaerobes*” value is reported as 0. In addition, in the assay on Enterobacter aerogenes (contact time 4 hours), the “Log10 Reduction Facultative Anaerobes**” value stood at 0.

As for `[Na+].[O-][Cl+][O-]` [19(comparative), NaClO2], the “Log10 Reduction Anaerobes*” value with Desulfovibrio vulgaris (contact time 24 hours) amounted to 4. Besides, the “Log10 Reduction Facultative Anaerobes**” value in the assay with Enterobacter aerogenes (contact time 24 hours) is listed as 0.

As to `CCCCCCCCCCCCCC[P+](CCCC)(CCCC)CCCC.[Cl-]` [18(comparative), tri n-butyl n-tetradecyl phosphonium chloride], the “Log10 Reduction Anaerobes*” value in the assay with Desulfovibrio vulgaris (contact time 24 hours) was 5. In addition, the “Log10 Reduction Facultative Anaerobes**” value in the assay on Enterobacter aerogenes (contact time 24 hours) was 6.

Take `CCCCCCCCCCCCCC[P+](CCCC)(CCCC)CCCC.[Cl-]` [10(comparative), tri n-butyl n-tetradecyl phosphonium chloride]: the “Log10 Reduction Anaerobes*” value with Desulfovibrio vulgaris (contact time 4 hours) is 5. Besides, the “Log10 Reduction Facultative Anaerobes**” value with Enterobacter aerogenes (contact time 4 hours) stood at 4.
